According to patent US7468392B1, “Anti-fatigue cyclohexenone compounds from antrodia camphorata” (Golden Biotechnology Corporation, priority 2007, dated 2008):

How the values were obtained:
Assay type in all cases: in vivo, human
[1] = tested on: healthy male volunteers; test: Ammonia levels in blood before/after exhaustive exercise at 80% VO2max; details: for blood ammonia levels: exercise (DE), plasma, Mean, n = 15; for effect of supplementation after exercise on metabolism of blood ammonia: exhaustive exercise at 80% VO2max, versus placebo
Method: (§1) The present invention is based on supplementing cyclohexenone of Antrodia camphorata or placebo with no cyclohexenone of Antrodia camphorata to the subjects. The subjects were tested for the anti-fatigue function after supplementing cyclohexenone of Antrodia camphorata by measuring the amounts of fatigue indexes such as CPK, lactic acid, glucose, ammonia and free fatty acid before and after exhaustive exercise load at 80% VO2max.
(§2) Subjects were randomized to receive either cyclohexenone of Antrodia camphorata or placebo. Placebo contained substances such as cornstarch but no cyclohexenone of Antrodia camphorata. A double-blind, cross-over method was performed in this study where neither the evaluator nor the subject knew the content of the test substances. Based on rules of order balance, each subject have to receive the following tests: relaxing and receiving placebo (PR), exercising and receiving placebo (PE), relaxing and receiving cyclohexenone of Antrodia camphorata (DR), and exercising and receiving cyclohexenone of Antrodia camphorata (DE). Each test was carried out for one week, and took one week off before the next test until all 4 tests were performed in each subject. The exercise was performed on a treadmill with the load intensity at the measured 80% VO2max (7.61±1.87) until exhausted. Subjects received cyclohexenone of Antrodia camphorata or placebo after exercise in the amount of 0.2 g/kg body weight per day. […] Blood was collected in anticoagulant (such as EDTA) containing collection tubes, and was centrifuged at 3000 g. for 10 min to collect the plasma. The fatigue indexes such as CPK, lactic acid, glucose, ammonia and free fatty acid were analyzed accordingly. The physiological and biochemical changes before and after exercise with different supplements were compared and shown as values of mean and standard error (Mean±SEM). […] The details for the biochemical analysis and results are described below:
The measurement of blood ammonia was performed with an automated blood analyzer Johnson & Johnson DT-60II based on the spectrophotometric method. Bromphenol blue was added into a defined amount of plasma to generate blue products. The reaction is shown below:
The absorbance at 605 nm was measured to obtain the concentration of blood ammonia.

[2] = tested on: healthy male volunteers; test: Lactate levels in blood before/after exhaustive exercise at 80% VO2max; details: for blood lactate levels: plasma, Mean, n = 15; for effect of supplementation after exercise on metabolism of blood lactate: exhaustive exercise at 80% VO2max, versus placebo
Method: as §1, §2
The measurement of blood lactate was performed with an automated blood analyzer using dry chemistry method (Johnson & Johnson DT-60II) based on enzyme function and spectrophotometric theory. Lactate oxidase was added into a defined amount of plasma for reaction, followed by addition of 4-aminoantipyrine and 1,7-dihydroxynaphthalene. A red product was formed through activities of peroxidase. The reactions are shown below:
The absorbance at 540 nm was measured to obtain the concentration of blood lactate.

[3] = tested on: healthy male volunteers; test: Free fatty acid levels before/after exhaustive exercise at 80% VO2max; details: for levels of free fatty acid: plasma, Mean, n = 15; for effect of supplementation after exercise on metabolism of free fatty acid: exhaustive exercise at 80% VO2max, versus placebo
Method: as §1, §2
The measurement of free fatty acid level was performed based on enzyme function and spectrophotometric theory. Acyl CoA synthetase and acyl CoA oxidase were added into a defined amount of plasma for reaction. A purple product was formed through activities of peroxidase. The reactions are shown below:
The absorbance at 550 nm was measured to obtain the concentration of free fatty acid.

[4] = tested on: healthy male volunteers; test: Anti-fatigue test for cyclohexenone of Antrodia camphorata (fatigue indexes overall); details: after exhaustive exercising at 80% VO2max, indexes CPK, lactic acid, glucose, ammonia, free fatty acid
Method: as §1
Subjects were randomized to receive either cyclohexenone of Antrodia camphorata or placebo. Placebo contained substances such as cornstarch but no cyclohexenone of Antrodia camphorata. A double-blind, cross-over method was performed in this study where neither the evaluator nor the subject knew the content of the test substances. Based on rules of order balance, each subject have to receive the following tests: relaxing and receiving placebo (PR), exercising and receiving placebo (PE), relaxing and receiving cyclohexenone of Antrodia camphorata (DR), and exercising and receiving cyclohexenone of Antrodia camphorata (DE). […] The exercise was performed on a treadmill with the load intensity at the measured 80% VO2max (7.61±1.87) until exhausted. […] The fatigue indexes such as CPK, lactic acid, glucose, ammonia and free fatty acid were analyzed accordingly. […]

[5] = listed as cyclohexenone from Antrodia camphorata
[6] = listed as cyclohexenone from Antrodia camphorea
[7] = Relax (DR), Post-exercise 0.5 h
[8] = Relax (DR), Post-exercise 120 h
[9] = Relax (DR), Post-exercise 168 h
[10] = exercise (DE), Post-exercise 0 h
[11] = exercise (DE), Post-exercise 0.5 h
[12] = exercise (DE), Post-exercise 1 h
[13] = exercise (DE), Post-exercise 2 h
[14] = exercise (DE), Post-exercise 24 h
[15] = exercise (DE), Post-exercise 48 h
[16] = exercise (DE), Post-exercise 72 h
[17] = exercise (DE), Post-exercise 120 h
[18] = exercise (DE), Post-exercise 168 h
[19] = exercise (DE), Prior to exercise
[20] = listed as cyclohexenone of Antrodia camphorata

Molecule COC1=C(OC)C(O)C(C/C=C(\C)CC/C=C(\C)CCC=C(C)C)C(C)C1=O (stereo not drawn) [cyclohexenone, 4-hydroxy-2,3-dimethoxy-6-methyl-5(3,7,11-trimethyl-dodeca-2,6,10-trienyl)-cyclohex-2-enone] has a blood ammonia levels ([1]; Post-exercise 1 h) of 44.86 µg/dL, a blood ammonia levels ([1]; Post-exercise 2 h) of 37.53 µg/dL and a blood ammonia levels ([1]; Post-exercise 24 h) of 27.93 µg/dL. It also gave a blood ammonia levels ([1]; Post-exercise 48 h) of 20.93 µg/dL, a blood ammonia levels ([1]; Post-exercise 72 h) of 30.07 µg/dL and a blood ammonia levels ([1]; Post-exercise 120 h) of 23.21 µg/dL. The blood ammonia levels ([1]; Post-exercise 168 h) was 24.86 µg/dL, the blood ammonia levels ([1]; Prior to exercise) was 45.86 µg/dL and the “effect of supplementation after exercise on metabolism of blood ammonia” value [1, 5] was “facilitates the metabolism of blood ammonia”. The “effect of supplementation after exercise on metabolism of blood ammonia” value [1, 6] was “beneficial to the recovery of creatine phosphate kinase and blood ammonia”, the “blood ammonia level, exercise group versus relax group receiving cyclohexenone” value ([1]; post exercise at 2 h, p<0.05) was “significantly superior” and the blood lactate levels ([2]; Relax (DR), Post-exercise 0 h) was 2.39 mmol/L. For the same molecule, the blood lactate levels [2, 7] was 2.25 mmol/L, the blood lactate levels ([2]; Relax (DR), Post-exercise 1 h) was 3.00 mmol/L and the blood lactate levels ([2]; Relax (DR), Post-exercise 2 h) was 2.52 mmol/L. The blood lactate levels ([2]; Relax (DR), Post-exercise 24 h) was 2.26 mmol/L, the blood lactate levels ([2]; Relax (DR), Post-exercise 48 h) was 2.71 mmol/L and the blood lactate levels ([2]; Relax (DR), Post-exercise 72 h) was 2.22 mmol/L. The blood lactate levels [2, 8] was 2.41 mmol/L, the blood lactate levels [2, 9] was 2.41 mmol/L and the blood lactate levels ([2]; Relax (DR), Prior to exercise) was 2.54 mmol/L. For the same molecule, the blood lactate levels [2, 10] was 7.07 mmol/L, the blood lactate levels [2, 11] was 3.20 mmol/L and the blood lactate levels [2, 12] was 2.96 mmol/L. For the same molecule, the blood lactate levels [2, 13] was 2.9 mmol/L, the blood lactate levels [2, 14] was 2.39 mmol/L and the blood lactate levels [2, 15] was 2.77 mmol/L. It also gave a blood lactate levels [2, 16] of 2.18 mmol/L, a blood lactate levels [2, 17] of 2.53 mmol/L and a blood lactate levels [2, 18] of 2.23 mmol/L. For the same molecule, the blood lactate levels [2, 19] was 2.50 mmol/L, the “effect of supplementation after exercise on metabolism of blood lactate” value [2, 5] was “did not affect the metabolism of blood lactate” and the “effect of supplementation after exercise on metabolism of blood lactate” value [2, 20] was “no significant difference”. The levels of free fatty acid ([3]; Relax (DR), Post-exercise 0 h) was 0.33 mM, the levels of free fatty acid [3, 7] was 0.34 mM and the levels of free fatty acid ([3]; Relax (DR), Post-exercise 1 h) was 0.3 mM. It also gave a levels of free fatty acid ([3]; Relax (DR), Post-exercise 2 h) of 0.23 mM, a levels of free fatty acid ([3]; Relax (DR), Post-exercise 24 h) of 0.28 mM and a levels of free fatty acid ([3]; Relax (DR), Post-exercise 48 h) of 0.29 mM. For the same molecule, the levels of free fatty acid ([3]; Relax (DR), Post-exercise 72 h) was 0.31 mM, the levels of free fatty acid [3, 8] was 0.48 mM and the levels of free fatty acid [3, 9] was 0.28 mM. For the same molecule, the levels of free fatty acid ([3]; Relax (DR), Prior to exercise) was 0.38 mM, the levels of free fatty acid [3, 10] was 0.91 mM and the levels of free fatty acid [3, 11] was 0.6 mM. For the same molecule, the levels of free fatty acid [3, 12] was 0.61 mM, the levels of free fatty acid [3, 13] was 0.59 mM and the levels of free fatty acid [3, 14] was 0.41 mM. For the same molecule, the levels of free fatty acid [3, 15] was 0.28 mM, the levels of free fatty acid [3, 16] was 0.44 mM and the levels of free fatty acid [3, 17] was 0.3 mM. For the same molecule, the levels of free fatty acid [3, 18] was 0.32 mM, the levels of free fatty acid [3, 19] was 0.34 mM and the “effect of supplementation after exercise on metabolism of free fatty acid” value [3, 5] was “did not affect the metabolism of free fatty acid”. For the same molecule, the “effect of supplementation after exercise on metabolism of free fatty acid” value [3, 20] was “no significant difference”, the “anti-fatigue function (physiological fatigue after exercise)” value ([4]; listed as 4-hydroxy-2,3-dimethoxy-6-methyl-5(3,7,11-trimethyl-dodecca-2,6,10-trienyl)-cycl) was “can be used to delay physiological fatigue after exercise” and the “anti-fatigue function (physiological fatigue after exercise)” value [4, 6] was “delays physiological fatigue”.
